Measured values: patent US20260176320A1, “MODULATORS OF G-PROTEIN COUPLED RECEPTORS” (priority 2018, published 2026)
Read-outs that look alike come from different tables or passages of the source. Square brackets hold non-standard residues; d marks the D form. Peptide text beside a SMILES is read from it. * marks the point of attachment. X5 = O=C(CSCC(=O)*)NCCN1CCCC1=O; Aib = CC(C)(N)C(=O)O

Columns and labels:
Assay type in all cases: cell-based
[1] = target: T1, GLP-1R (Homo sapiens, UniProt P43220); test: HitHunter cAMP assay (GLP-1R); conditions: cAMP; for Emax: read-out: (Emax) GLP-1R
T1 sequence (P43220 24-463): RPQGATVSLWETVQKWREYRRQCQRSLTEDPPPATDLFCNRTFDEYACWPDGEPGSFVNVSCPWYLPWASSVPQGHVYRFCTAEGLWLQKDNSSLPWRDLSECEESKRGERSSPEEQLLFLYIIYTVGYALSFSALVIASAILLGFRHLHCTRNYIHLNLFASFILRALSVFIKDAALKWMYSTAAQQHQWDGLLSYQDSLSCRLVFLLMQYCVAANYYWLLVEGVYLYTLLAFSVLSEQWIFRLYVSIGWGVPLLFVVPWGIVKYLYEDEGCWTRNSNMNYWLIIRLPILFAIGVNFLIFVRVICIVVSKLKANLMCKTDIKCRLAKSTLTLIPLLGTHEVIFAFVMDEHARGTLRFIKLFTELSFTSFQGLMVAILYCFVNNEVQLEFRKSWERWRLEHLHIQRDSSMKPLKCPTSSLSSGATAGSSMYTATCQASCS
Outline: (§1)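 cAMP accumulation read by luminescent HitHunter immunocompetition after 30 min room-temperature agonist stimulation. Agonists tested as 22-point twofold dilutions, in duplicate, on 10,000 cells/well in HBSS containing 625 μM IBMX, 10 mM HEPES and 0.2% BSA.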

[2] = target: T2, GIP-R (Homo sapiens, UniProt P48546); test: HitHunter cAMP assay (GIP-R); conditions: cAMP; for Emax: read-out: (Emax) GIP-R
T2 sequence (P48546 22-466): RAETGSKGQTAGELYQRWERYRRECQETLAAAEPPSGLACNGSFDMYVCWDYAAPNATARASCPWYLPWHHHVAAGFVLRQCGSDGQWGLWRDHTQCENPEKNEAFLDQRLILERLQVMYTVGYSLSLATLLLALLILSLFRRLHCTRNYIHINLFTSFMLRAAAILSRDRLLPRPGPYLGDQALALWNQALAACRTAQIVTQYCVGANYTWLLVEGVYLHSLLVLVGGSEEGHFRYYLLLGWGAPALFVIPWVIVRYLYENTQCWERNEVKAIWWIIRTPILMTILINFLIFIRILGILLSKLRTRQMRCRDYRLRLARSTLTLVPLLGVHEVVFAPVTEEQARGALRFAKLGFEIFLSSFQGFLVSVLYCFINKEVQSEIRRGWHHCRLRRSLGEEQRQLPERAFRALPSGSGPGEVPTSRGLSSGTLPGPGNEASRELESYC
Outline: as §1

[3] = target: T1, GLP-1R; test: PathHunter β-arrestin assay
Outline: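 β-Arrestin recruitment measured by PathHunter enzyme-fragment luminescence, read after 3 h dark incubation at room temperature with detection solution. Beforehand, agonist in a 22-point 2-fold series was applied in duplicate for 90 min at 37 °C to 5,000 cells/well in BSA-containing (0.2%) medium.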

[4] = Table 3, read-out: EC50 GLP-1R/nM
[5] = Table 3A, read-out: EC50 GLP-1R/nM
[6] = Table 3, read-out: EC50 GIP-R/nM
[7] = Table 3A, read-out: EC50 GIP-R/nM
[8] = PathHunter β-arrestin assay, read-out: β-arrestin activity EC50

Row | Structure (SMILES) | EC50 ([1]; EC50 GLP-1R/nM, Table 3) [nM] | EC50 ([1]; EC50 GLP-1R/nM, Table 3A) [nM] | Emax ([1]; Table 3) [%] | Emax ([1]; Table 3A) [%] | EC50 ([2]; EC50 GIP-R/nM, Table 3) [nM] | EC50 ([2]; EC50 GIP-R/nM, Table 3A) [nM] | Emax ([2]; Table 3) [%] | Emax ([2]; Table 3A) [%] | EC50 [3] [nM] | EC50 [1, 4] [nM] | EC50 [1, 5] [nM] | EC50 [2, 6] [nM] | EC50 [2, 7] [nM] | Emax at 1 µM ([2]; read-out: (Emax) GIP-R at 1 μM, Table 3, at 1 μM) [%] | EC50 [3, 8] [nM]
1 | CC[C@H](C)[C@H](NC(=O)[C@H](CO)NC(=O)[C@H](Cc1ccc(O)cc1)NC(=O)[C@H](CC(=O)O)NC(=O)[C@H](CO)NC(=O)[C@@H](NC(=O)[C@H](Cc1ccccc1)NC(=O)[C@@H](NC(=O)CNC(=O)[C@H](CCC(=O)O)NC(=O)CSCC(=O)NCCN1C(=O)c2ccc(C(C)(C)C)cc2C1=O)[C@@H](C)O)[C@@H](C)O)C(=O)N[C@@H](Cc1ccc(O)cc1)C(=O)N[C@@H](CC(C)C)C(=O)N[C@@H](CC(=O)O)C(=O)N[C@@H](CCCCN)C(=O)N[C@@H](CCC(N)=O)C(=O)N[C@@H](C)C(=O)N[C@@H](C)C(=O)NC(C)(C)C(=O)N[C@@H](CCC(=O)O)C(=O)N[C@@H](Cc1ccccc1)C(=O)N[C@H](C(=O)N[C@@H](CC(N)=O)C(=O)N[C@@H](Cc1c[nH]c2ccccc12)C(=O)N[C@@H](CC(C)C)C(=O)N[C@@H](CC(C)C)C(=O)N[C@@H](C)C(=O)NCC(=O)NCC(=O)N1CCC[C@H]1C(=O)N[C@@H](CO)C(=O)N[C@@H](CO)C(=O)NCC(=O)N[C@@H](C)C(=O)N1CCC[C@H]1C(=O)N1CCC[C@H]1C(=O)N1CCC[C@H]1C(=O)N[C@@H](CO)C(=O)N[C@@H](CCCCN)C(N)=O)C(C)C [Compound 164] | 10 to 100 | 10 to 100 | 68 | 68 | 10 to 100 | 10 to 100 | 99 to 105 | 99 to 105 | > 1000 |  |  |  |  |  | 
2 | CC[C@H](C)[C@H](NC(=O)[C@H](CO)NC(=O)[C@H](Cc1ccc(O)cc1)NC(=O)[C@H](CC(=O)O)NC(=O)[C@H](CO)NC(=O)[C@@H](NC(=O)[C@H](Cc1ccccc1)NC(=O)[C@@H](NC(=O)CNC(=O)[C@H](CCC(=O)O)NC(=O)CSCC(=O)NCCn1c(C)cc(C)nc1=O)[C@@H](C)O)[C@@H](C)O)C(=O)N[C@@H](Cc1ccc(O)cc1)C(=O)N[C@@H](CC(C)C)C(=O)N[C@@H](CC(=O)O)C(=O)N[C@@H](CCCCN)C(=O)N[C@@H](CCC(N)=O)C(=O)N[C@@H](C)C(=O)N[C@@H](C)C(=O)NC(C)(C)C(=O)N[C@@H](CCC(=O)O)C(=O)N[C@@H](Cc1ccccc1)C(=O)N[C@H](C(=O)N[C@@H](CC(N)=O)C(=O)N[C@@H](Cc1c[nH]c2ccccc12)C(=O)N[C@@H](CC(C)C)C(=O)N[C@@H](CC(C)C)C(=O)N[C@@H](C)C(=O)NCC(=O)NCC(=O)N1CCC[C@H]1C(=O)N[C@@H](CO)C(=O)N[C@@H](CO)C(=O)NCC(=O)N[C@@H](C)C(=O)N1CCC[C@H]1C(=O)N1CCC[C@H]1C(=O)N1CCC[C@H]1C(=O)N[C@@H](CO)C(=O)N[C@@H](CCCCN)C(N)=O)C(C)C [Compound 137] | 1 to 10 | 1 to 10 | 103 | 103 | 10 to 100 |  | 8 |  | > 1000 |  |  |  |  |  | 
3 | CCCCCCCCCCCCCCCC(=O)N[C@@H](CCC(=O)NCCCC[C@H](NC(=O)[C@H](CO)NC(=O)[C@@H]1CCCN1C(=O)[C@@H]1CCCN1C(=O)[C@@H]1CCCN1C(=O)[C@H](C)NC(=O)CNC(=O)[C@H](CO)NC(=O)[C@H](CO)NC(=O)[C@@H]1CCCN1C(=O)CNC(=O)CNC(=O)[C@H](C)NC(=O)[C@H](CC(C)C)NC(=O)[C@H](CC(C)C)NC(=O)[C@H](Cc1c[nH]c2ccccc12)NC(=O)[C@H](CC(N)=O)NC(=O)[C@@H](NC(=O)[C@H](Cc1ccccc1)NC(=O)[C@H](CCC(=O)O)NC(=O)C(C)(C)NC(=O)[C@H](C)NC(=O)[C@H](C)NC(=O)[C@H](CCC(N)=O)NC(=O)[C@H](CCCCN)NC(=O)[C@H](CC(=O)O)NC(=O)[C@H](CC(C)C)NC(=O)[C@H](Cc1ccc(O)cc1)NC(=O)[C@@H](NC(=O)[C@H](CO)NC(=O)[C@H](Cc1ccc(O)cc1)NC(=O)[C@H](CC(=O)O)NC(=O)[C@H](CO)NC(=O)[C@@H](NC(=O)[C@H](Cc1ccccc1)NC(=O)[C@@H](NC(=O)CNC(=O)[C@H](CCC(=O)O)NC(=O)CSCC(=O)NCCN1CCS(=O)(=O)CC1=O)[C@@H](C)O)[C@@H](C)O)[C@@H](C)CC)C(C)C)C(N)=O)C(=O)O [Compound 29] | 1 to 10 | 1 to 10 | 98 | 98 | 1 to 10 | 100 to 1000 | 11 | 11 | > 1000 |  |  |  |  |  | 
4 | CC[C@H](C)[C@H](NC(=O)[C@H](CO)NC(=O)[C@H](Cc1ccc(O)cc1)NC(=O)[C@H](CC(=O)O)NC(=O)[C@H](CO)NC(=O)[C@@H](NC(=O)[C@H](Cc1ccccc1)NC(=O)[C@@H](NC(=O)CNC(=O)[C@H](CCC(=O)O)NC(=O)CSCC(=O)NCCN1CCCC1=O)[C@@H](C)O)[C@@H](C)O)C(=O)N[C@@H](Cc1ccc(O)cc1)C(=O)N[C@@H](CC(C)C)C(=O)N[C@@H](CC(=O)O)C(=O)N[C@@H](CCCNC(=N)N)C(=O)N[C@@H](CCC(N)=O)C(=O)N[C@@H](C)C(=O)N[C@@H](C)C(=O)NC(C)(C)C(=O)N[C@@H](CCC(=O)O)C(=O)N[C@@H](Cc1ccccc1)C(=O)N[C@H](C(=O)N[C@@H](CC(N)=O)C(=O)N[C@@H](Cc1c[nH]c2ccccc12)C(=O)N[C@@H](CC(C)C)C(=O)N[C@@H](CC(C)C)C(=O)N[C@@H](C)C(=O)NCC(=O)NCC(=O)N1CCC[C@H]1C(=O)N[C@@H](CO)C(=O)N[C@@H](CO)C(=O)NCC(=O)N[C@@H](C)C(=O)N1CCC[C@H]1C(=O)N1CCC[C@H]1C(=O)N1CCC[C@H]1C(=O)N[C@@H](CO)C(N)=O)C(C)C [Compound 189] (X5-EGTFTSDYSIYLDRQAA[Aib]EFVNWLLAGGPSSGAPPPS-NH2) |  |  | 94 | 94 |  |  |  |  |  | 1 to 10 | 1 to 10 | > 1000 | > 1000 | 4.5 | > 1000
5 | CC[C@H](C)[C@H](NC(=O)[C@H](CO)NC(=O)[C@H](Cc1ccc(O)cc1)NC(=O)[C@H](CC(=O)O)NC(=O)[C@H](CO)NC(=O)[C@@H](NC(=O)[C@H](Cc1ccccc1)NC(=O)[C@@H](NC(=O)CNC(=O)[C@H](CCC(=O)O)NC(=O)CSCC(=O)NCCN1C(=O)c2cccc3cccc(c23)C1=O)[C@@H](C)O)[C@@H](C)O)C(=O)N[C@@H](Cc1ccc(O)cc1)C(=O)N[C@@H](CC(C)C)C(=O)N[C@@H](CC(=O)O)C(=O)N[C@@H](CCCCN)C(=O)N[C@@H](CCC(N)=O)C(=O)N[C@@H](C)C(=O)N[C@@H](C)C(=O)NC(C)(C)C(=O)N[C@@H](CCC(=O)O)C(=O)N[C@@H](Cc1ccccc1)C(=O)N[C@H](C(=O)N[C@@H](CC(N)=O)C(=O)N[C@@H](Cc1c[nH]c2ccccc12)C(=O)N[C@@H](CC(C)C)C(=O)N[C@@H](CC(C)C)C(=O)N[C@@H](C)C(=O)NCC(=O)NCC(=O)N1CCC[C@H]1C(=O)N[C@@H](CO)C(=O)N[C@@H](CO)C(=O)NCC(=O)N[C@@H](C)C(=O)N1CCC[C@H]1C(=O)N1CCC[C@H]1C(=O)N1CCC[C@H]1C(=O)N[C@@H](CO)C(=O)N[C@@H](CCCCN)C(N)=O)C(C)C [Compound 158] |  |  | 31 to 38 | 31 to 38 |  |  | 104 to 107 | 104 to 107 |  | 10 to 100 | 10 to 100 | 0.1 to 1 | 0.1 to 1 |  | > 1000
